# Tests used:
# crabgrass = assay: Test A crabgrass; assay type: in vivo, Digitaria spp.; settings: 0 to 10 scale where 0 is no effect and 10 is complete control
# In short: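 Visual injury score, 0 (no effect) to 10 (complete control), vs untreated controls at ~11 d in greenhouse. Pre: soil drench on sandy loam. Post: spray to runoff, 1–2 leaf stage.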
# field violet [1] = assay: Test E field violet; assay type: in vivo, Viola arvensis; settings: Preemergence
# spring wheat [2] = assay: Test E spring wheat; assay type: in vivo, Triticum aestivum; settings: Postemergence
# Experimental: (§1) Compounds evaluated in this test were formulated in a non-phytotoxic solvent mixture which included a surfactant and applied to plants that were in the 1- to 4-leaf stage (postemergence application). A mixture of sandy loam soil and greenhouse potting mix in a 60:40 ratio was used for the postemergence test.
# (§2) Plantings of these crops and weed species were adjusted to produce plants of appropriate size for the postemergence test. All plant species were grown using normal greenhouse practices. Crop and weed species include annual bluegrass (Poa annua), blackgrass (Alopecurus myosuroides), black nightshade (Solanum nigra), chickweed (Stellaria media), common poppy (Papaver rhoeas), deadnettle (Lamium amplexicaule), downy brome (Bromus tectorum), field violet (Viola arvensis), galium (Galium aparine), green foxtail (Setaria viridis), Italian ryegrass (Lolium multiflorum), jointed goatgrass (Aegilops cylindrica), kochia (Kochia scoparia), lambsquarters (Chenopodium album), littleseed canarygrass (Phalaris minor), rape (Brassica napus), redroot pigweed (Amaranthus retroflexus), Russian thistle (Salsola kali), scentless chamomile (Matricaria inodora), spring barley (Hordeum vulgare), sugar beet (Beta vulgaris), sunflower (Helianthus annuus), ivyleaf speedwell (Veronica hederaefolia), spring wheat (Triticum aestivum), winter wheat (Triticum aestivum), wild buckwheat (Polygonum convolvulus), wild mustard (Sinapis arvensis), wild oat (Avena fatua), windgrass (Apera spica-venti) and winter barley (Hordeum vulgare).
# (§3) Treated plants and untreated controls were maintained in a greenhouse for approximately 21 to 28 days, after which all treated plants were compared to untreated controls and visually evaluated. […] A dash response (-) means no test result.
# sugar beet = assay: Test E sugar beet; assay type: in vivo, Beta vulgaris; settings: Postemergence
# In short: (§4)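 Plants were grown under normal greenhouse practice; for postemergence, in sandy loam soil mixed 60:40 with potting mix, treated at the 1- to 4-leaf stage. The compound was in a non-phytotoxic solvent carrying a surfactant. After roughly 21 to 28 days plants were scored visually against untreated plants.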
# blackgrass = assay: Test E blackgrass; assay type: in vivo, Alopecurus myosuroides; settings: Postemergence
# Experimental: as §1, §2, §3
# cocklebur = assay: Test C postemergence cocklebur; assay type: in vivo, Xanthium strumarium; settings: 0 to 100 scale, 0 no effect, 100 complete control
# In short: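 Scores (0 = no effect, 100 = complete control) come from visual comparison with untreated controls after about 14–21 days. Spray formulation was a non-phytotoxic solvent mixture including surfactant; plants grew in a 60:40 sandy loam–potting mix blend.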
# redroot pigweed = assay: Test C postemergence redroot pigweed; assay type: in vivo, Amaranthus retroflexus; settings: 0 to 100 scale, 0 no effect, 100 complete control
# Experimental: as §1, with “grown for various periods of time before treatment” for “in the 1- to 4-leaf stage”
# (§5) Plantings of these crops and weed species were adjusted to produce plants of appropriate size for the postemergence test. All plant species were grown using normal greenhouse practices. Crop and weed species include arrowleaf sida (Sida rhombifolia), barnyardgrass (Echinochloa crus-galli), cocklebur (Xanthium strumarium), common ragweed (Ambrosia elatior), corn (Zea mays), cotton (Gossypium hirsutum), eastern black nightshade (Solanum ptycanthum), fall panicum (Panicum dichotomiflorum), field bindweed (Convolvulus arvensis), giant foxtail (Setaria faberii), hairy beggarticks (Bidens pilosa), ivyleaf morningglory (Ipomoea hederacea), johnsongrass (Sorghum halepense), ladysthumb smartweed (Polygonum persicaria), lambsquarters (Chenopodium album), large crabgrass (Digitaria sanguinalis), purple nutsedge (Cyperus rotundus), redroot pigweed (Amaranthus retroflexus), soybean (Glycine max), surinam grass (Brachiaria decumbens), velvetleaf (Abutilon theophrasti) and wild poinsettia (Euphorbia heterophylla).
# (§6) Treated plants and untreated controls were maintained in a greenhouse for approximately 14, to 21 days, after which all treated plants were compared to untreated controls and visually evaluated. Plant response ratings, summarized in Table C, were based upon a 0 to 100 scale where 0 was no effect and 100 was complete control. A dash response (−) means no test result.
# spring wheat [3] = assay: Test E spring wheat; assay type: in vivo, Triticum aestivum; settings: Preemergence
# littleseed canarygrass = assay: Test E littleseed canarygrass; assay type: in vivo, Phalaris minor; settings: Postemergence
# Experimental: as §1, §2, §3
# arrowleaf sida = assay: Test C postemergence arrowleaf sida; assay type: in vivo, Sida rhombifolia; settings: 0 to 100 scale, 0 no effect, 100 complete control
# Experimental: as §1, with “grown for various periods of time before treatment” for “in the 1- to 4-leaf stage”
# as §5, §6
# spring barley = assay: Test E spring barley; assay type: in vivo, Hordeum vulgare; settings: Preemergence
# wild oat = assay: Test E wild oat; assay type: in vivo, Avena fatua; settings: Postemergence
# In short: as §4
# lambsquarters = assay: Test C postemergence lambsquarters; assay type: in vivo, Chenopodium album; settings: 0 to 100 scale, 0 no effect, 100 complete control
# Experimental: as §1, with “grown for various periods of time before treatment” for “in the 1- to 4-leaf stage”
# as §5, §6
# common poppy = assay: Test E common poppy; assay type: in vivo, Papaver rhoeas; settings: Postemergence
# Experimental: as §1, §2, §3
# field violet [4] = assay: Test E field violet; assay type: in vivo, Viola arvensis; settings: Postemergence
# Experimental: as §1, §2, §3
# wild buckwheat = assay: Test E wild buckwheat; assay type: in vivo, Polygonum convolvulus; settings: Postemergence
# In short: as §4
# windgrass = assay: Test E windgrass; assay type: in vivo, Apera spica-venti; settings: Postemergence, Rate 62 g/ha; 0 to 100 scale
# In short: as §4
# [5] = Rate 62 g/ha, 0 to 100 scale, 0 no effect, 100 complete control
# [6] = Rate 125 g/ha, 0 to 100 scale (0 no effect, 100 complete control)
# [7] = Rate 250 g/ha, 0 to 100 scale (0 no effect, 100 complete control)
compound,measurement,setting,value
Cc1ccccc1-n1c(=O)on(C(=O)N(C2=CCOCC2)C(C)C)c1=O [Compound 10],"Plant response rating, Crabgrass","crabgrass; Postemergence, Rate 1000 g/ha",8
same,"Plant response rating, Crabgrass","crabgrass; Pre-emergence, Rate 2000 g/ha",9
C=CCn1c(=O)on(C(=O)N(c2ccccc2)C(C)C)c1=O [Compound 93],"Plant response rating, Field violet",field violet [1]; [5],0
same,"Plant response rating, Field violet",field violet [1]; [6],10
same,"Plant response rating, Field violet","field violet [1]; Rate 250 g/ha, 0 to 100 scale",30
same,"Plant response rating, Spring Wheat","spring wheat [2]; Rate 62 g/ha, 0 to 100 scale",0
same,"Plant response rating, Spring Wheat","spring wheat [2]; Rate 125 g/ha, 0 to 100 scale",0
same,"Plant response rating, Spring Wheat",spring wheat [2]; [7],0
same,"Plant response rating, Sugar beet","sugar beet; Rate 62 g/ha, 0 to 100 scale",0
same,"Plant response rating, Sugar beet","sugar beet; Rate 125 g/ha, 0 to 100 scale",0
same,"Plant response rating, Sugar beet",sugar beet; [7],0
same,"Plant response rating, Blackgrass","blackgrass; Rate 62 g/ha, 0 to 100 scale",10
same,"Plant response rating, Blackgrass","blackgrass; Rate 125 g/ha, 0 to 100 scale",30
same,"Plant response rating, Blackgrass",blackgrass; [7],40
same,"Plant response rating, Cocklebur",cocklebur; Rate 140 g/ha,0
same,"Plant response rating, Cocklebur",cocklebur; Rate 280 g/ha,35
same,"Plant response rating, Cocklebur",cocklebur; Rate 560 g/ha,40
same,"Plant response rating, Redroot pigweed",redroot pigweed; Rate 140 g/ha,5
same,"Plant response rating, Redroot pigweed",redroot pigweed; Rate 560 g/ha,10
same,"Plant response rating, Redroot pigweed",redroot pigweed; Rate 1120 g/ha,85
same,"Plant response rating, Spring Wheat",spring wheat [3]; [5],30
same,"Plant response rating, Spring Wheat",spring wheat [3]; [6],50
same,"Plant response rating, Spring Wheat","spring wheat [3]; Rate 250 g/ha, 0 to 100 scale",80
same,"Plant response rating, LS canarygrass","littleseed canarygrass; Rate 62 g/ha, 0 to 100 scale",0
same,"Plant response rating, LS canarygrass","littleseed canarygrass; Rate 125 g/ha, 0 to 100 scale",0
same,"Plant response rating, LS canarygrass",littleseed canarygrass; [7],0
same,Plant response rating Arrowleaf sida,arrowleaf sida; Rate 280 g/ha,10
same,Plant response rating Arrowleaf sida,arrowleaf sida; Rate 560 g/ha,60
same,Plant response rating Arrowleaf sida,arrowleaf sida; Rate 1120 g/ha,60
same,"Plant response rating, Spring Barley",spring barley; [5],5
same,"Plant response rating, Spring Barley",spring barley; [6],10
same,"Plant response rating, Spring Barley","spring barley; Rate 250 g/ha, 0 to 100 scale",60
same,"Plant response rating, Wild oat","wild oat; Rate 62 g/ha, 0 to 100 scale",0
same,"Plant response rating, Wild oat","wild oat; Rate 125 g/ha, 0 to 100 scale",0
same,"Plant response rating, Wild oat",wild oat; [7],0
same,"Plant response rating, Lambsquarters",lambsquarters; Rate 140 g/ha,10
same,"Plant response rating, Lambsquarters",lambsquarters; Rate 280 g/ha,10
same,"Plant response rating, Lambsquarters",lambsquarters; Rate 560 g/ha,10
same,"Plant response rating, Lambsquarters",lambsquarters; Rate 1120 g/ha,40
same,"Plant response rating, Common poppy","common poppy; Rate 62 g/ha, 0 to 100 scale",0
same,"Plant response rating, Comnion poppy","common poppy; Rate 125 g/ha, 0 to 100 scale",0
same,"Plant response rating, Common poppy",common poppy; [7],0
same,"Plant response rating, Field violet","field violet [4]; Rate 62 g/ha, 0 to 100 scale",0
same,"Plant response rating, Field violet","field violet [4]; Rate 125 g/ha, 0 to 100 scale",0
same,"Plant response rating, Field violet",field violet [4]; [7],0
same,"Plant response rating, Wild buckwheat","wild buckwheat; Rate 62 g/ha, 0 to 100 scale",0
same,"Plant response rating, Wild buckwheat","wild buckwheat; Rate 125 g/ha, 0 to 100 scale",0
same,"Plant response rating, Wild buckwheat",wild buckwheat; [7],0
same,"Plant response rating, Windgrass",windgrass,60
CC(C)N(C(=O)n1oc(=O)n(Cc2cccs2)c1=O)c1ccccc1 [Compound 103],"Plant response rating, Cocklebur",cocklebur; Rate 140 g/ha,0
same,"Plant response rating, Cocklebur",cocklebur; Rate 280 g/ha,0
same,"Plant response rating, Cocklebur",cocklebur; Rate 560 g/ha,0
same,"Plant response rating, Cocklebur",cocklebur; Rate 1120 g/ha,0
same,"Plant response rating, Redroot pigweed",redroot pigweed; Rate 140 g/ha,0
same,"Plant response rating, Redroot pigweed",redroot pigweed; Rate 280 g/ha,60
same,"Plant response rating, Redroot pigweed",redroot pigweed; Rate 560 g/ha,70
same,"Plant response rating, Redroot pigweed",redroot pigweed; Rate 1120 g/ha,85
same,Plant response rating Arrowleaf sida,arrowleaf sida; Rate 140 g/ha,0
same,Plant response rating Arrowleaf sida,arrowleaf sida; Rate 280 g/ha,0
same,Plant response rating Arrowleaf sida,arrowleaf sida; Rate 560 g/ha,0
same,"Plant response rating, Lambsquarters",lambsquarters; Rate 140 g/ha,0
same,"Plant response rating, Lambsquarters",lambsquarters; Rate 280 g/ha,5
same,"Plant response rating, Lambsquarters",lambsquarters; Rate 560 g/ha,5
same,"Plant response rating, Lambsquarters",lambsquarters; Rate 1120 g/ha,20
CC(C)N(C(=O)n1oc(=O)n(Cc2cccs2)c1=O)c1ccc(F)cc1 [Compound 80],"Plant response rating, Cocklebur",cocklebur; Rate 140 g/ha,5
same,"Plant response rating, Cocklebur",cocklebur; Rate 280 g/ha,10
same,"Plant response rating, Cocklebur",cocklebur; Rate 560 g/ha,50
same,"Plant response rating, Cocklebur",cocklebur; Rate 1120 g/ha,50
same,"Plant response rating, Redroot pigweed",redroot pigweed; Rate 280 g/ha,0
same,"Plant response rating, Redroot pigweed",redroot pigweed; Rate 560 g/ha,50
same,"Plant response rating, Redroot pigweed",redroot pigweed; Rate 1120 g/ha,80
same,Plant response rating Arrowleaf sida,arrowleaf sida; Rate 140 g/ha,0
same,Plant response rating Arrowleaf sida,arrowleaf sida; Rate 280 g/ha,5
same,Plant response rating Arrowleaf sida,arrowleaf sida; Rate 1120 g/ha,30
same,"Plant response rating, Lambsquarters",lambsquarters; Rate 140 g/ha,0
same,"Plant response rating, Lambsquarters",lambsquarters; Rate 280 g/ha,15
same,"Plant response rating, Lambsquarters",lambsquarters; Rate 560 g/ha,20
same,"Plant response rating, Lambsquarters",lambsquarters; Rate 1120 g/ha,20
